# Reference: patent US20250340551A1, “SMALL MOLECULE MODULATORS OF STAT6” (Gilead Sciences, Inc., priority 2024, published 2025)
# System: Eotaxin-3 (CCL26) release in human whole blood stimulated with IL-4
# Test: Human whole blood eotaxin-3 assay (IL-4 stimulated, Eotaxin-3 release)
# Type: cell-based
# Details: Homo sapiens, 48 h
# Procedure: This was a human whole blood assay using recombinant human Interleukin 4 to stimulate the blood and measuring the ability of the test compounds to inhibit eotaxin-3 release. The biological activities of the test compounds have been tested in human whole blood stimulated with IL-4 measuring Eotaxin-3 release. The test compounds were added to 384 well clear flat-bottom plate in a 4-fold serial dilution in triplicates using a liquid handler. Human whole blood stabilized in lithium-heparin tubes was added in a volume of 65 μL per well, resulting in a final DMSO concentration of 0.5%. The plate is incubated for 2 h at 37° C. under 5% CO2/95% air. Subsequently, 5 μL of recombinant human IL-4 (R&D Systems, cat #204-ILB) was added to the wells to a final concentration of 400 pM. The plate was incubated for 48 h at 37° C. under 5% CO2/95% air. The plate was spun down for 10 minutes at 500×g and 20 μL supernatant was harvested and transferred to a 384 well v-bottom plate using a liquid handler and stored at −20° C. until further analysis. 10 μL supernatant was used to measure the level of Eotaxin-3 (CCL26) using Human Eotaxin-3 MSD kit from Mesocsale (Cat #K251UEK-4). The assay was performed according to the manufacture instructions.
# The data from the human whole blood eotaxin-3 assay is shown below for Examples 1u2, 1x1, 1af26, and 1af36 (where the effect in % is plotted against the test concentration in M on a log-scale).
row,Structure (SMILES),Emax
1,"CNc1ccc(-c2ccnc3c2cc(CN2CC[C@@H](c4ccc(C(=O)N(C)C)cc4)C[C@@H]2C)n3C)nc1 (single isomer, unassigned) [Example 1o28]",< 20%
2,"CNc1ccc(-c2ccnc3c2cc(CN2CC[C@H](c4ccc(C(=O)N(C)C)cc4)C[C@H]2C)n3C)nc1 (single isomer, unassigned) [Example 1o29]",< 20%
3,"CNc1ccc(-c2ccnc3c2cc(CN2CC[C@@H](c4ccc(C(=O)N(C)C)cc4)[C@H](F)C2)n3C)nc1 (stereo in doubt) [Example 1o17, 4-((3S,4S)-3-fluoro-1-((1-methyl-4-(5-(methylamino)pyridin-2-yl)-1H-pyrrolo[2,3-b]pyridin-2-yl)methyl)piperidin-4-yl)-N,N-dimethylbenzamide]",< 20%

# Same assay, conditions: Homo sapiens, Hec50, 48 h
row,EC50,Structure (SMILES)
1,0.392 µM,"Cc1cc(C(=O)N(C)C)cnc1C1=CCN(Cc2cc3c(-c4ccc(N)nn4)ccnc3n2C)CC1 [Example 1ae22, 1′-((4-(6-Aminopyridazin-3-yl)-1-methyl-1H-pyrrolo[2,3-b]pyridin-2-yl)methyl)-N,N,3-trimethyl-1′,2′,3′,6′-tetrahydro-[2,4′-bipyridine]-5-carboxamide]"
2,1.4 µM,"[2H]C([2H])([2H])N(C(=O)c1ccc(C2CCN([C@H](C)c3cc4c(-c5ccc(N)cn5)ccnc4n3C)CC2)c(C)c1)C([2H])([2H])[2H] [Example 1af42, (R)-4-(1-(1-(4-(5-amino-pyridin-2-yl)-1-methyl-1H-pyrrolo[2,3-b]pyridin-2-yl)ethyl)piperidin-4-yl)-3-methyl-N,N-bis(methyl-d3)benzamide]"
3,0.466 µM,"[2H]C([2H])([2H])N(C(=O)c1ccc(C2CCN([C@@H](C)c3cc4c(-c5ccc(NCCOC)nc5)ccnc4n3C)CC2)cc1)C([2H])([2H])[2H] [Example 1af50, (S)-4-(1-(1-(4-(6-((2-methoxyethyl)amino)pyridin-3-yl)-1-methyl-1H-pyrrolo[2,3-b]pyridin-2-yl)ethyl)piperidin-4-yl)-N,N-bis(methyl-d3)benzamide]"
4,1.67 µM,"[2H]C([2H])([2H])N(C(=O)c1ccc(C2=CCN([C@@H](C)c3cc4c(-c5ncc(N)cc5F)ccnc4n3C)CC2)cc1)C([2H])([2H])[2H] [Example 1af51, (S)-4-(1-(1-(4-(5-Amino-3-fluoropyridin-2-yl)-1-methyl-1H-pyrrolo[2,3-b]pyridin-2-yl)ethyl)-1,2,3,6-tetrahydropyridin-4-yl)-N,N-bis(methyl-d3)benzamide]"
5,0.765 µM,"[2H]C([2H])([2H])N(C(=O)c1ccc(C2=CCN([C@@H](C)c3cc4c(-c5ncc(N)cc5C)ccnc4n3C)CC2)cc1)C([2H])([2H])[2H] [Example 1af53, (S)-4-(1-(1-(4-(5-Amino-3-methylpyridin-2-yl)-1-methyl-1H-pyrrolo[2,3-b]pyridin-2-yl)ethyl)-1,2,3,6-tetrahydropyridin-4-yl)-N,N-bis(methyl-d3)benzamide]"
6,0.534 µM,"[2H]C([2H])([2H])N(C(=O)c1ccc(C2=CCN([C@@H](C)c3cc4c(-c5ccc(N)c(F)n5)ccnc4n3C)CC2)cc1)C([2H])([2H])[2H] [Example 1af54, (S)-4-(1-(1-(4-(5-Amino-6-fluoropyridin-2-yl)-1-methyl-1H-pyrrolo[2,3-b]pyridin-2-yl)ethyl)-1,2,3,6-tetrahydropyridin-4-yl)-N,N-bis(methyl-d3)benzamide]"
7,0.426 µM,"[2H]C([2H])([2H])N(C(=O)c1ccc(C2=CCN([C@@H](C)c3cc4c(-c5cnc(N)cc5F)ccnc4n3C)CC2)cc1)C([2H])([2H])[2H] [Example 1af55, (S)-4-(1-(1-(4-(6-Amino-4-fluoropyridin-3-yl)-1-methyl-1H-pyrrolo[2,3-b]pyridin-2-yl)ethyl)-1,2,3,6-tetrahydropyridin-4-yl)-N,N-bis(methyl-d3)benzamide]"

# Target: human STAT6 (Homo sapiens (Human), UniProt P42226)
# Test: Surface plasmon resonance assay (Biacore 8K, binding to immobilized STAT6)
# Details: human STAT6 aa122-658, N-terminal His-tag, CM5 chip, 25° C.; geometric mean; read-out: STAT6 SPR Kd
# Method in brief: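 Run at 25° C with His-tagged STAT6 aa122-658 (insect-cell expressed) amine-coupled to a CM5 chip, reference-subtracted, in PBS-P+ with 2% DMSO. Multi-cycle kinetics: 60 sec. contact, up to 300 sec. dissociation. Affinity fitted from late report-point binding isotherms, with Rmax both free and fixed to theoretical 1:1.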
# Chain of human STAT6 (P42226 122-658): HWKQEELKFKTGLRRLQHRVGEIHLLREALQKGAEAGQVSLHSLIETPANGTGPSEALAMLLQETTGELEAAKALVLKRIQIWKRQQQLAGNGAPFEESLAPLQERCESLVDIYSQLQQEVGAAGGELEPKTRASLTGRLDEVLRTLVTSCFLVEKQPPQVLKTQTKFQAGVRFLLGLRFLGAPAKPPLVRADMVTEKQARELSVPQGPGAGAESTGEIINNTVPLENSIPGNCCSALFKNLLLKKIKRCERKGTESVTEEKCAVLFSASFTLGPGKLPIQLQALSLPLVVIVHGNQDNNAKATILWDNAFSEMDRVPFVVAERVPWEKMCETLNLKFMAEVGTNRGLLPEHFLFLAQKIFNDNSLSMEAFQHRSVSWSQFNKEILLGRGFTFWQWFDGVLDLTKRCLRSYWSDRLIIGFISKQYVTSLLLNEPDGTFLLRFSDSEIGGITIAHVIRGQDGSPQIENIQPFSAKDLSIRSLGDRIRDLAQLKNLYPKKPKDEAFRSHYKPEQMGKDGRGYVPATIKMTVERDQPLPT
row,Structure (SMILES),Kd
1,"CNc1ccc(-c2ccnc3c2cc(CN2CCC(F)(c4ccc(C(=O)N(C)C)cc4)CC2)n3C)nc1 [Example 1o19, 4-[4-Fluoro-1-[[1-methyl-4-[5-(methylamino)-2-pyridyl]pyrrolo[2,3-b]pyridin-2-yl]methyl]-4-piperidyl]-N,N-dimethyl-benzamide]",0.173 µM
2,"CNc1ccc(-c2ccnc3c2cc([C@@H](C)N2CCC(c4ccc(C(=O)N(C)C)cc4)CC2)n3C)nc1 [Example 1o25, (R)—N,N-dimethyl-4-(1-(1-(1-methyl-4-(5-(methyl-amino)pyridin-2-yl)-1H-pyrrolo[2,3-b]pyridin-2-yl)ethyl)piperidin-4-yl)benzamide]",1.35 µM
3,"CNc1ccc(-c2ccnc3c2cc(CN2CC[C@H](c4ccc(C(=O)N(C)C)cc4)C[C@@H]2C)n3C)nc1 [Example 1o27, N,N-dimethyl-4-((2S,4S)-2-methyl-1-((1-methyl-4-(5-(methylamino)-pyridin-2-yl)-1H-pyrrolo[2,3-b]pyridin-2-yl)methyl)piperidin-4-yl)benzamide]",0.147 µM
4,"CC(=O)Nc1ccc(-c2ccnc3c2cc(CN2CC[C@H](c4ccc(C(=O)N(C)C)cc4)[C@H](F)C2)n3C)cc1 [Example 1r5, N,N-Dimethyl-4-[(3S,4R)-1-[[4-(4-acetamidophenyl)-1-methyl-pyrrolo[2,3-b]pyridin-2-yl]methyl]-3-fluoro-4-piperidyl]benzamide]",0.11 µM
5,"CNc1ccc(-c2ccnc3c2cc(CN2CCN(c4ccc(C(=O)N(C)C)cc4)CC2=O)n3C)cn1 [Example 1s5, N,N-Dimethyl-4-[4-[[1-methyl-4-[6-(methylamino)-3-pyridyl]pyrrolo[2,3-b]pyridin-2-yl]methyl]-3-oxo-piperazin-1-yl]benzamide]",0.0706 µM
6,"CCS(=O)(=O)n1c(CN2CCC(c3ccc(C(=O)N(C)C)cc3)CC2)cc2c(-c3ccc(NC)nc3)ccnc21 [Example 1x2, 4-[1-[[1-Ethylsulfonyl-4-[6-(methylamino)-3-pyridyl]pyrrolo[2,3-b]pyridin-2-yl]methyl]-4-piperidyl]-N,N-dimethyl-benzamide]",0.0541 µM
7,"CNc1ccc(-c2ccnc3c2cc(C(C)N2CCC(c4ccc(C(=O)N(C)C)cc4)CC2)n3C)cn1 (stereo not shown) [Example 1z13, N,N-dimethyl-4-(1-(1-(1-methyl-4-(6-(methylamino)pyridin-3-yl)-1H-pyrrolo[2,3-b]pyridin-2-yl)ethyl)piperidin-4-yl)benzamide]",0.0223 µM

# The remaining lines, values ahead:
row,Kd,Structure (SMILES)
1,0.148 µM,"CNc1ccc(-c2ccnc3c2cc(CN2CCC(c4ccc(C(=O)N(C)C)cn4)CC2)n3C)nn1 [Example 1p5, N,N-Dimethyl-6-[1-[[1-methyl-4-[6-(methylamino)pyridazin-3-yl]pyrrolo[2,3-b]pyridin-2-yl]methyl]-4-piperidyl]pyridine-3-carboxamide]"
2,0.595 µM,"CNc1ccc(-c2ccnc3c2cc(CN2CCC(n4ccc(C(=O)N(C)C)cc4=O)CC2)n3C)cn1 [Example 1s6, N,N-Dimethyl-1-[1-[[1-methyl-4-[6-(methylamino)-3-pyridyl]pyrrolo[2,3-b]pyridin-2-yl]methyl]-4-piperidyl]-2-oxo-pyridine-4-carboxamide]"
3,0.0481 µM,"CNc1ccc(-c2ccnc3c2cc(CN2CCC(c4ccc(C(=O)N(C)C)cc4C)CC2)n3C)cn1 [Example 1s9, N,N,3-Trimethyl-4-[1-[[1-methyl-4-[6-(methylamino)-3-pyridyl]pyrrolo[2,3-b]pyridin-2-yl]methyl]-4-piperidyl]benzamide]"
4,0.133 µM,"CNc1ccc(-c2ccnc3c2cc(CN2CC=C(c4ccc(C(=O)N(C)C)cn4)CC2)n3C)cn1 [Example 1s11, N,N-Dimethyl-6-[1-[[1-methyl-4-[6-(methylamino)-3-pyridyl]pyrrolo[2,3-b]pyridin-2-yl]methyl]-3,6-dihydro-2H-pyridin-4-yl]pyridine-3-carboxamide]"
5,0.119 µM,"CNc1ccc(-c2ccnc3c2cc(CN2CCC(c4ncc(C(=O)N(C)C)cc4C)CC2)n3C)cn1 [Example 1s15, N,N,5-Trimethyl-6-[1-[[1-methyl-4-[6-(methylamino)-3-pyridyl]pyrrolo[2,3-b]pyridin-2-yl]methyl]-4-piperidyl]pyridine-3-carboxamide]"
6,0.0616 µM,"CNc1ccc(-c2ccnc3c2cc(CN2CCC(F)(c4ccc(C(=O)N(C)C)cc4)CC2)n3C)cn1 [Example 1s26, 4-[4-Fluoro-1-[[1-methyl-4-[6-(methylamino)-3-pyridyl]pyrrolo[2,3-b]pyridin-2-yl]methyl]-4-piperidyl]-N,N-dimethyl-benzamide]"
7,5.28 µM,"CNc1ccc(-c2ccnc3c2cc(CN2CCC(c4ccc(C(=O)N(C)C)cc4)CC2)n3CC(C)(C)C)cn1 [Example 1x3, 4-[1-[[1-(2,2-Dimethylpropyl)-4-[6-(methylamino)-3-pyridyl]pyrrolo[2,3-b]pyridin-2-yl]methyl]-4-piperidyl]-N,N-dimethyl-benzamide]"
8,0.0223 µM,"CN(C)C(=O)c1ccc(C2CCN(Cc3cc4c(-c5ccc(N)nc5)ccnc4n3C)CC2)cc1 [Example 1z19, 4-(1-((4-(6-aminopyridin-3-yl)-1-methyl-1H-pyrrolo[2,3-b]pyridin-2-yl)methyl)piperidin-4-yl)-N,N-dimethylbenzamide]"
